Measured values as given in PubChem BioAssay (NCI).
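Interpolation was linear, between the two tested concentrations surrounding the appropriate level; five concentrations were tested over 48 hours in 96-well plates. GI50 = concentration required for 50% inhibition of growth. The concentration for full growth arrest is given as TGI.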

Legend:
Test in all cases: NCI tumour cell line growth inhibition, 48 h
UO-31 renal = test system: UO-31 renal
M14 melanoma = test system: M14 melanoma
COLO 205 colon = test system: COLO 205 colon
K-562 leukemia = test system: K-562 leukemia
HOP-62 NSCLC = test system: HOP-62 NSCLC
LOX IMVI melanoma = test system: LOX IMVI melanoma
KM12 colon = test system: KM12 colon
CCRF-CEM leukemia = test system: CCRF-CEM leukemia
A498 renal = test system: A498 renal
IGROV1 ovarian = test system: IGROV1 ovarian
HOP-92 NSCLC = test system: HOP-92 NSCLC
MDA-MB-231 breast = test system: MDA-MB-231 breast
786-0 renal = test system: 786-0 renal
ACHN renal = test system: ACHN renal
SF-539 CNS = test system: SF-539 CNS
NCI-H522 lung = test system: NCI-H522 lung
SF-268 CNS = test system: SF-268 CNS
SNB-75 CNS = test system: SNB-75 CNS
HS 578T breast = test system: HS 578T breast
HCT-116 colon = test system: HCT-116 colon
T-47D breast = test system: T-47D breast
SK-OV-3 ovarian = test system: SK-OV-3 ovarian
NCI-H23 lung = test system: NCI-H23 lung
NCI-H460 lung = test system: NCI-H460 lung
SW-620 colon = test system: SW-620 colon
SF-295 CNS = test system: SF-295 CNS
SR leukemia = test system: SR leukemia
MCF7 breast = test system: MCF7 breast
DU-145 prostate = test system: DU-145 prostate
U251 CNS = test system: U251 CNS
UACC-62 melanoma = test system: UACC-62 melanoma
A549 NSCLC = test system: A549 NSCLC
RPMI-8226 leukemia = test system: RPMI-8226 leukemia
HCC-2998 colon = test system: HCC-2998 colon
MDA-N = test system: MDA-N
SN12C renal = test system: SN12C renal
CAKI-1 renal = test system: CAKI-1 renal
SNB-19 CNS = test system: SNB-19 CNS
MDA-MB-435 = test system: MDA-MB-435
EKVX NSCLC = test system: EKVX NSCLC
SK-MEL-2 melanoma = test system: SK-MEL-2 melanoma
HL-60(TB) leukemia = test system: HL-60(TB) leukemia
SK-MEL-5 melanoma = test system: SK-MEL-5 melanoma
TK-10 renal = test system: TK-10 renal
MALME-3M melanoma = test system: MALME-3M melanoma
PC-3 prostate = test system: PC-3 prostate
MOLT-4 leukemia = test system: MOLT-4 leukemia
OVCAR-3 ovarian = test system: OVCAR-3 ovarian
UACC-257 melanoma = test system: UACC-257 melanoma
OVCAR-5 ovarian = test system: OVCAR-5 ovarian
SK-MEL-28 melanoma = test system: SK-MEL-28 melanoma
RXF 393 renal = test system: RXF 393 renal
HCT-15 colon = test system: HCT-15 colon
NCI-H226 lung = test system: NCI-H226 lung
OVCAR-8 ovarian = test system: OVCAR-8 ovarian
HT29 colon = test system: HT29 colon
NCI/ADR-RES ovarian = test system: NCI/ADR-RES ovarian
OVCAR-4 ovarian = test system: OVCAR-4 ovarian

`Cc1ccc(Nc2nc(C)c(C(=O)CC(=O)C(=O)Nc3ccc(Cl)cc3)s2)cc1` was tested, and the TGI (UO-31 renal) was > 100 µM, the TGI (M14 melanoma) was > 100 µM and the TGI (COLO 205 colon) was > 100 µM. The TGI (K-562 leukemia) was > 100 µM, the TGI (HOP-62 NSCLC) was > 100 µM and the TGI (LOX IMVI melanoma) was > 100 µM. The TGI (KM12 colon) was > 100 µM, the TGI (CCRF-CEM leukemia) was > 100 µM and the TGI (A498 renal) was > 100 µM. The TGI (IGROV1 ovarian) was > 100 µM, the TGI (HOP-92 NSCLC) was > 100 µM and the TGI (MDA-MB-231 breast) was > 100 µM. The TGI (786-0 renal) was > 100 µM, the TGI (ACHN renal) was > 100 µM and the TGI (SF-539 CNS) was > 100 µM. The TGI (NCI-H522 lung) was > 100 µM, the TGI (SF-268 CNS) was > 100 µM and the TGI (SNB-75 CNS) was > 100 µM. The TGI (HS 578T breast) was > 100 µM, the TGI (HCT-116 colon) was > 100 µM and the TGI (T-47D breast) was > 100 µM. The TGI (SK-OV-3 ovarian) was > 100 µM, the TGI (NCI-H23 lung) was > 100 µM and the TGI (NCI-H460 lung) was > 100 µM. The TGI (SW-620 colon) was > 100 µM, the TGI (SF-295 CNS) was > 100 µM and the TGI (SR leukemia) was > 100 µM. The TGI (MCF7 breast) was > 100 µM, the TGI (DU-145 prostate) was > 100 µM and the TGI (U251 CNS) was > 100 µM. For the same molecule, the TGI (UACC-62 melanoma) was > 100 µM, the TGI (A549 NSCLC) was > 100 µM and the TGI (RPMI-8226 leukemia) was > 100 µM. For the same molecule, the TGI (HCC-2998 colon) was > 100 µM, the TGI (MDA-N) was > 100 µM and the TGI (SN12C renal) was > 100 µM. For the same molecule, the TGI (CAKI-1 renal) was > 100 µM, the TGI (SNB-19 CNS) was > 100 µM and the TGI (MDA-MB-435) was > 100 µM. The TGI (EKVX NSCLC) was > 100 µM, the TGI (SK-MEL-2 melanoma) was > 100 µM and the TGI (HL-60(TB) leukemia) was > 100 µM. The TGI (SK-MEL-5 melanoma) was > 100 µM, the TGI (TK-10 renal) was > 100 µM and the TGI (MALME-3M melanoma) was > 100 µM. For the same molecule, the TGI (PC-3 prostate) was > 100 µM, the TGI (MOLT-4 leukemia) was > 100 µM and the TGI (OVCAR-3 ovarian) was > 100 µM. The TGI (UACC-257 melanoma) was > 100 µM, the TGI (OVCAR-5 ovarian) was > 100 µM and the TGI (SK-MEL-28 melanoma) was > 100 µM. For the same molecule, the TGI (RXF 393 renal) was > 100 µM and the TGI (HCT-15 colon) was > 100 µM.

`CCCc1cc2c(cc1O)CC[C@@H]1[C@@H]2CC[C@]2(C)[C@@H](O)CC[C@@H]12` showed a TGI (UO-31 renal) of 24.6 µM, a TGI (M14 melanoma) of 23 µM and a TGI (COLO 205 colon) of 34.5 µM. It also gave a TGI (K-562 leukemia) of 13.6 µM, a GI50 (HOP-62 NSCLC) of 16 µM and a TGI (HOP-62 NSCLC) of 34.2 µM. It also gave a TGI (LOX IMVI melanoma) of 24 µM, a TGI (KM12 colon) of 22.6 µM and a TGI (CCRF-CEM leukemia) of 20.9 µM. For the same molecule, the TGI (A498 renal) was 32.3 µM, the TGI (IGROV1 ovarian) was 30.2 µM and the TGI (HOP-92 NSCLC) was 33.6 µM. For the same molecule, the TGI (MDA-MB-231 breast) was 40.8 µM, the TGI (786-0 renal) was 26.6 µM and the TGI (ACHN renal) was 25.6 µM. The TGI (SF-539 CNS) was 24.4 µM, the TGI (NCI-H522 lung) was 24.9 µM and the TGI (SF-268 CNS) was 28.6 µM. It also gave a TGI (SNB-75 CNS) of 29.3 µM, a TGI (HS 578T breast) of 32.3 µM and a GI50 (HCT-116 colon) of 6.54 µM. For the same molecule, the TGI (HCT-116 colon) was 19.8 µM, the TGI (T-47D breast) was 32.6 µM and the TGI (SK-OV-3 ovarian) was 29.1 µM. The TGI (NCI-H23 lung) was 29.2 µM, the TGI (NCI-H460 lung) was 24.4 µM and the TGI (SW-620 colon) was 17.2 µM. The TGI (NCI-H226 lung) was 27.5 µM, the TGI (OVCAR-8 ovarian) was 29.1 µM and the TGI (SF-295 CNS) was 17.8 µM. For the same molecule, the TGI (SR leukemia) was 13.4 µM, the TGI (HT29 colon) was 31.1 µM and the TGI (NCI/ADR-RES ovarian) was 27.1 µM. The GI50 (DU-145 prostate) was 18.8 µM, the TGI (DU-145 prostate) was 32.8 µM and the TGI (U251 CNS) was 20.3 µM. For the same molecule, the GI50 (UACC-62 melanoma) was 6.02 µM, the TGI (UACC-62 melanoma) was 19.4 µM and the TGI (A549 NSCLC) was 22.9 µM. It also gave a TGI (HCC-2998 colon) of 33 µM, a TGI (MDA-N) of 6.05 µM and a TGI (OVCAR-4 ovarian) of 32.7 µM. It also gave a TGI (SN12C renal) of 24.7 µM, a TGI (CAKI-1 renal) of 24.8 µM and a TGI (SNB-19 CNS) of 26.3 µM. The GI50 (MDA-MB-435) was 2.19 µM, the TGI (MDA-MB-435) was 5.1 µM and the TGI (EKVX NSCLC) was 26.2 µM. For the same molecule, the TGI (SK-MEL-2 melanoma) was 30.2 µM, the TGI (HL-60(TB) leukemia) was 29.7 µM and the TGI (SK-MEL-5 melanoma) was 22.4 µM. It also gave a TGI (TK-10 renal) of 30.1 µM, a TGI (MALME-3M melanoma) of 27.9 µM and a TGI (PC-3 prostate) of 34.5 µM. For the same molecule, the TGI (MOLT-4 leukemia) was 20.4 µM, the TGI (OVCAR-3 ovarian) was 24.4 µM and the TGI (UACC-257 melanoma) was 25.8 µM. For the same molecule, the TGI (OVCAR-5 ovarian) was 34.7 µM, the TGI (SK-MEL-28 melanoma) was 25.8 µM and the TGI (RXF 393 renal) was 22.1 µM. For the same molecule, the TGI (HCT-15 colon) was 18.1 µM.
